# Reference: US20230250083A1, “CRYSTALS” (NIPPON SHINYAKU CO., LTD., priority 2017, published 2023)
# Columns and labels:
# [1] = Crystallization experiment, operation procedure 1 (suspension stirred 2 days, cooled and warmed between 4 to 40° C.); format: physicochemical; parameters: key: —: The symbol “-” in Table 1 to Table 3 means that no precipitate was obtained
# Protocol: (§1) Each of various solvents was added to the Form-I crystal of the present invention (several mg), crystals of the compound A were precipitated according to the following operation procedures, and the crystal form of the precipitated crystals was confirmed. The results of the operation procedures 1 to 3 are shown in Table 1 and Table 2, and the results of the operation procedure 4 are shown in Table 3. The symbol “-” in Table 1 to Table 3 means that no precipitate was obtained.
# Each of various solvents (50 μL) was added to the Form-I crystal of the present invention to make a suspension thereof, and the suspension was stirred for 2 days while repeatedly being cooled and warmed between 4 to 40° C.
# [2] = Crystallization experiment, operation procedure 2 (dissolved at 40° C., cooled to 4° C., stirred 3 days); format: physicochemical; parameters: key: —: The symbol “-” in Table 1 to Table 3 means that no precipitate was obtained
# Protocol: as §1
# Each of various solvents (50 μL) was added to the Form-I crystal of the present invention to dissolve the Form-I crystal of the present invention at 40° C. […] The solution was cooled to 4° C. and stirred for 3 days.
# [3] = Crystallization experiment, operation procedure 3 (dissolved at 40° C., solvent gradually distilled off at room temperature); format: physicochemical; parameters: key: —: The symbol “-” in Table 1 to Table 3 means that no precipitate was obtained
# Protocol: as §1
# Each of various solvents (50 μL) was added to the Form-I crystal of the present invention to dissolve the Form-I crystal of the present invention at 40° C. […] The solvent was gradually distilled off at room temperature.
# [4] = Crystallization experiment, operation procedure 4 (saturated solution, poor solvent added); format: physicochemical; parameters: key: —: The symbol “-” in Table 1 to Table 3 means that no precipitate was obtained
# Protocol: Each of various solvents was added to the Form-I crystal of the present invention (several mg), crystals of the compound A were precipitated according to the following operation procedures, and the crystal form of the precipitated crystals was confirmed. The results of the operation procedures 1 to 3 are shown in Table 1 and Table 2, and the results of the operation procedure 4 are shown in Table 3. The symbol “-” in Table 1 to Table 3 means that no precipitate was obtained. Each of various dissolving solvents (minimum volume) was added to the Form-I crystal of the present invention to prepare a saturated solution. Various poor solvents were added thereto.
# [5] = target: JAK2 tyrosine kinase (Homo sapiens, UniProt O60674); conditions: see PATENT DOCUMENT 1; cited from earlier work
# Sequence of JAK2 tyrosine kinase (O60674 whole entry): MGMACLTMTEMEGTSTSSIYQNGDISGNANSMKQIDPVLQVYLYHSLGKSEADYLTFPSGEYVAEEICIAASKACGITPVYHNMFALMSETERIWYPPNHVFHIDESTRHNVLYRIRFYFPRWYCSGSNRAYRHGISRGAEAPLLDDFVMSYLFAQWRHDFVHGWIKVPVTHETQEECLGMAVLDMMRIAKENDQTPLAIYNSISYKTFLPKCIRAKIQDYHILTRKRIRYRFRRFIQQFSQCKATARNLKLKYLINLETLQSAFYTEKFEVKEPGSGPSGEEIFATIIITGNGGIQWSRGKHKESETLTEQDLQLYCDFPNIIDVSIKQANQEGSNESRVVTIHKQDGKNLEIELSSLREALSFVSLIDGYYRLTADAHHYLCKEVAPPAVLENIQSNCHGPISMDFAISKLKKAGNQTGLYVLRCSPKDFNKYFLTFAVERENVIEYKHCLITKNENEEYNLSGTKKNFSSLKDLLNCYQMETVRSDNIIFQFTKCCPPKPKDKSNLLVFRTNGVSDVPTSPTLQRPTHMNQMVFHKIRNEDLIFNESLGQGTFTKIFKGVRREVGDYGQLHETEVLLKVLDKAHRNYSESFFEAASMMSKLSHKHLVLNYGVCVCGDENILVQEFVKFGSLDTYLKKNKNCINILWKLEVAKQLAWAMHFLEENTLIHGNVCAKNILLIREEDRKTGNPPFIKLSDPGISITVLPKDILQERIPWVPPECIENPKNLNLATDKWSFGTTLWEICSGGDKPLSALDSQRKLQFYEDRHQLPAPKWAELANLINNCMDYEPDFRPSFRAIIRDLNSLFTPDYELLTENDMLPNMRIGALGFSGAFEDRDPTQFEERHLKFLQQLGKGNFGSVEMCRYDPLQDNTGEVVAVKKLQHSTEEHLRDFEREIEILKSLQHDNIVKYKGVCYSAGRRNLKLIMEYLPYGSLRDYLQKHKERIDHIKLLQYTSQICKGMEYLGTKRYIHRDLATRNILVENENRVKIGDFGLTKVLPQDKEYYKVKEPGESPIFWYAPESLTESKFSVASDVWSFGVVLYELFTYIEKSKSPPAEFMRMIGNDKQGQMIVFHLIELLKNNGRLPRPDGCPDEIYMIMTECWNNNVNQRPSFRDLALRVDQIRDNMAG
# [6] = solvent 1,4-dioxane:water 80:20
# [7] = solvent acetonitrile:dimethyl sulfoxide 80:20
# [8] = solvent acetonitrile:water 80:20
# [9] = solvent acetonitrile:water 95:5
# [10] = solvent ethanol:dimethyl sulfoxide 80:20
# [11] = solvent tetrahydrofuran:water 20:80
# [12] = solvent tetrahydrofuran:water 95:5
compound,measurement,setting,value
"C[C@H](Nc1cc(-c2cnn(C)c2)cc(Nc2cnccn2)n1)c1ccc(F)cc1.O=C(O)/C=C\C(=O)O [compound A, (S)-N^2-[1-(4-fluorophenyl)ethyl]-4-(1-methyl-1H-pyrazol-4-yl)-N^6-(pyrazin-2-yl)pyridine-2,6-diamine maleate]",crystal form of the precipitated crystals,"[1]; solvent 1,4-dioxane",Form-I
same,crystal form of the precipitated crystals,[1]; [6],Form-I
same,crystal form of the precipitated crystals,[1]; solvent 1-butanol,Form-I
same,crystal form of the precipitated crystals,[1]; solvent 1-methoxy-2 -propanol,Form-I
same,crystal form of the precipitated crystals,[1]; solvent 1-propanol,Form-I
same,crystal form of the precipitated crystals,[1]; solvent 2-methoxyethanol,Form-I
same,crystal form of the precipitated crystals,[1]; solvent 2-methoxyethyl ether,Form-I
same,crystal form of the precipitated crystals,[1]; solvent 2-propanol,Form-I
same,crystal form of the precipitated crystals,[1]; solvent 2-propanol:water 80:20,Form-I
same,crystal form of the precipitated crystals,[1]; solvent 2-propanol:water 95:5,Form-I
same,crystal form of the precipitated crystals,"[1]; solvent N,N-dimethylformamide",—
same,crystal form of the precipitated crystals,[1]; solvent N-methylpyrrolidone,—
same,crystal form of the precipitated crystals,[1]; solvent acetone,Form-I
same,crystal form of the precipitated crystals,[1]; solvent acetone:water 20:80,Form-I
same,crystal form of the precipitated crystals,[1]; solvent acetone:water 80:20,Form-I
same,crystal form of the precipitated crystals,[1]; solvent acetone:water 95:5,Form-I
same,crystal form of the precipitated crystals,[1]; solvent acetonitrile,Form-I
same,crystal form of the precipitated crystals,[1]; [7],Form-I
same,crystal form of the precipitated crystals,[1]; [8],Form-I
same,crystal form of the precipitated crystals,[1]; [9],Form-I
same,crystal form of the precipitated crystals,[1]; solvent chlorobenzene,Form-I
same,crystal form of the precipitated crystals,[1]; solvent chloroform,Form-I
same,crystal form of the precipitated crystals,[1]; solvent cyclohexane,Form-I
same,crystal form of the precipitated crystals,[1]; solvent cyclohexanone,Form-I
same,crystal form of the precipitated crystals,[1]; solvent dichloromethane,Form-I
same,crystal form of the precipitated crystals,[1]; solvent dimethyl carbonate,Form-I
same,crystal form of the precipitated crystals,[1]; solvent dimethyl sulfoxide,—
same,crystal form of the precipitated crystals,[1]; solvent ethanol,Form-I
same,crystal form of the precipitated crystals,[1]; [10],Form-I
same,crystal form of the precipitated crystals,[1]; solvent ethanol:water 20:80,Form-I
same,crystal form of the precipitated crystals,[1]; solvent ethyl acetate,Form-I
same,crystal form of the precipitated crystals,[1]; solvent heptane,Form-I
same,crystal form of the precipitated crystals,[1]; solvent isopropyl acetate,Form-I
same,crystal form of the precipitated crystals,[1]; solvent isopropyl ether,Form-I
same,crystal form of the precipitated crystals,[1]; solvent methanol,Form-I
same,crystal form of the precipitated crystals,[1]; solvent methanol:water 80:20,Form-I
same,crystal form of the precipitated crystals,[1]; solvent methanol:water 95:5,Form-I
same,crystal form of the precipitated crystals,[1]; solvent methyl acetate,Form-I
same,crystal form of the precipitated crystals,[1]; solvent methyl ethyl ketone,Form-I
same,crystal form of the precipitated crystals,[1]; solvent methyl isobutyl ketone,Form-I
same,crystal form of the precipitated crystals,[1]; solvent nitromethane,Form-I
same,crystal form of the precipitated crystals,[1]; solvent t-butyl methyl ether,Form-I
same,crystal form of the precipitated crystals,[1]; solvent tetrahydrofuran,Form-I
same,crystal form of the precipitated crystals,[1]; [11],Form-I
same,crystal form of the precipitated crystals,[1]; [12],Form-I
same,crystal form of the precipitated crystals,[1]; solvent toluene,Form-I
same,crystal form of the precipitated crystals,[1]; solvent trifluoroethanol,—
same,crystal form of the precipitated crystals,[1]; solvent water,Form-I
same,crystal form of the precipitated crystals,"[2]; solvent 1,4-dioxane",solvate
same,crystal form of the precipitated crystals,[2]; [6],—
same,crystal form of the precipitated crystals,[2]; solvent 1-butanol,—
same,crystal form of the precipitated crystals,[2]; solvent 1-methoxy-2 -propanol,—
same,crystal form of the precipitated crystals,[2]; solvent 1-propanol,Form-I
same,crystal form of the precipitated crystals,[2]; solvent 2-methoxyethanol,—
same,crystal form of the precipitated crystals,[2]; solvent 2-methoxyethyl ether,—
same,crystal form of the precipitated crystals,[2]; solvent 2-propanol,—
same,crystal form of the precipitated crystals,[2]; solvent 2-propanol:water 80:20,—
same,crystal form of the precipitated crystals,[2]; solvent 2-propanol:water 95:5,—
same,crystal form of the precipitated crystals,"[2]; solvent N,N-dimethylformamide",—
same,crystal form of the precipitated crystals,[2]; solvent N-methylpyrrolidone,—
same,crystal form of the precipitated crystals,[2]; solvent acetone,Form-I
same,crystal form of the precipitated crystals,[2]; solvent acetone:water 20:80,—
same,crystal form of the precipitated crystals,[2]; solvent acetone:water 80:20,—
same,crystal form of the precipitated crystals,[2]; solvent acetone:water 95:5,—
same,crystal form of the precipitated crystals,[2]; solvent acetonitrile,—
same,crystal form of the precipitated crystals,[2]; [7],—
same,crystal form of the precipitated crystals,[2]; [8],—
same,crystal form of the precipitated crystals,[2]; [9],—
same,crystal form of the precipitated crystals,[2]; solvent chlorobenzene,—
same,crystal form of the precipitated crystals,[2]; solvent chloroform,—
same,crystal form of the precipitated crystals,[2]; solvent cyclohexane,—
same,crystal form of the precipitated crystals,[2]; solvent cyclohexanone,—
same,crystal form of the precipitated crystals,[2]; solvent dichloromethane,—
same,crystal form of the precipitated crystals,[2]; solvent dimethyl carbonate,—
same,crystal form of the precipitated crystals,[2]; solvent dimethyl sulfoxide,—
same,crystal form of the precipitated crystals,[2]; solvent ethanol,Form-I
same,crystal form of the precipitated crystals,[2]; [10],Form-I
same,crystal form of the precipitated crystals,[2]; solvent ethanol:water 20:80,—
same,crystal form of the precipitated crystals,[2]; solvent ethyl acetate,—
same,crystal form of the precipitated crystals,[2]; solvent heptane,—
same,crystal form of the precipitated crystals,[2]; solvent isopropyl acetate,—
same,crystal form of the precipitated crystals,[2]; solvent isopropyl ether,—
same,crystal form of the precipitated crystals,[2]; solvent methanol,Form-I
same,crystal form of the precipitated crystals,[2]; solvent methanol:water 80:20,Form-I
same,crystal form of the precipitated crystals,[2]; solvent methanol:water 95:5,—
same,crystal form of the precipitated crystals,[2]; solvent methyl acetate,—
same,crystal form of the precipitated crystals,[2]; solvent methyl ethyl ketone,—
same,crystal form of the precipitated crystals,[2]; solvent methyl isobutyl ketone,—
same,crystal form of the precipitated crystals,[2]; solvent nitromethane,—
same,crystal form of the precipitated crystals,[2]; solvent t-butyl methyl ether,—
same,crystal form of the precipitated crystals,[2]; solvent tetrahydrofuran,—
same,crystal form of the precipitated crystals,[2]; [11],—
same,crystal form of the precipitated crystals,[2]; [12],—
same,crystal form of the precipitated crystals,[2]; solvent toluene,—
same,crystal form of the precipitated crystals,[2]; solvent trifluoroethanol,—
same,crystal form of the precipitated crystals,[2]; solvent water,—
same,crystal form of the precipitated crystals,[3]; solvent acetone,—
same,crystal form of the precipitated crystals,[3]; solvent acetonitrile,—
same,crystal form of the precipitated crystals,[3]; solvent dimethyl sulfoxide,Form-I
same,crystal form of the precipitated crystals,[3]; solvent nitromethane,—
same,Crystal form,"[4]; dissolving solvent 2-methoxyethanol, poor solvent cyclohexane",Form-I
same,Crystal form,"[4]; dissolving solvent 2-methoxyethanol, poor solvent isopropyl acetate",Form-I
same,Crystal form,"[4]; dissolving solvent 2-methoxyethanol, poor solvent t-butyl methyl ether",Form-I
same,Crystal form,"[4]; dissolving solvent 2-methoxyethanol, poor solvent water",—
same,Crystal form,"[4]; dissolving solvent N,N-dimethylformamide, poor solvent 2-propanol",Form-I
same,Crystal form,"[4]; dissolving solvent N,N-dimethylformamide, poor solvent diethyl ether",Form-I
same,Crystal form,"[4]; dissolving solvent N,N-dimethylformamide, poor solvent isopropyl acetate",Form-I
same,Crystal form,"[4]; dissolving solvent N,N-dimethylformamide, poor solvent t-butyl methyl ether",Form-I
same,Crystal form,"[4]; dissolving solvent N,N-dimethylformamide, poor solvent water",Form-I
same,Crystal form,"[4]; dissolving solvent N-methylpyrrolidone, poor solvent 2-propanol",Form-I
same,Crystal form,"[4]; dissolving solvent N-methylpyrrolidone, poor solvent ethyl acetate",Form-I
same,Crystal form,"[4]; dissolving solvent N-methylpyrrolidone, poor solvent toluene",Form-I
same,Crystal form,"[4]; dissolving solvent N-methylpyrrolidone, poor solvent water",Form-I
same,Crystal form,"[4]; dissolving solvent acetone:water 80:20, poor solvent 2-propanol",—
same,Crystal form,"[4]; dissolving solvent acetone:water 80:20, poor solvent water",Form-II
same,Crystal form,"[4]; dissolving solvent dimethyl sulfoxide, poor solvent 2-propanol",Form-I
same,Crystal form,"[4]; dissolving solvent dimethyl sulfoxide, poor solvent diisopropyl ether",—
same,Crystal form,"[4]; dissolving solvent dimethyl sulfoxide, poor solvent ethyl acetate",Form-I
same,Crystal form,"[4]; dissolving solvent dimethyl sulfoxide, poor solvent t-butyl methyl ether",Form-I
same,Crystal form,"[4]; dissolving solvent dimethyl sulfoxide, poor solvent water",—
same,Crystal form,"[4]; dissolving solvent tetrahydrofuran:water 80:20, poor solvent water",Form-I
same,Crystal form,"[4]; dissolving solvent trifluoroethanol, poor solvent cyclohexane",—
same,Crystal form,"[4]; dissolving solvent trifluoroethanol, poor solvent diisopropyl ether",Form-I
same,Crystal form,"[4]; dissolving solvent trifluoroethanol, poor solvent water",—
same,JAK2 tyrosine kinase inhibitory action,[5],excellent JAK2 tyrosine kinase inhibitory action
